Laboratory results taken from ChEMBL document CHEMBL1201862, “PubChem BioAssay data set” (2004).
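Growth conditions: 96-well plates. Treatment: test compound, 48 hours, 5 concentrations. Analysis: linear interpolation between bracketing concentrations; unreached endpoints set to highest concentration. Abbreviation: GI50, concentration required for 50% inhibition of growth.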 Active and inactive are the calls of the source. Rule as the data show it: active = GI50 up to about 1.1 µM and inactive = higher.

What was measured:
Test in all cases: DTP human tumour cell line panel, 48 h
SW-620 = tested on: SW-620
NCI-H23 = tested on: NCI-H23
HCT-116 = tested on: HCT-116
LOX IMVI = tested on: LOX IMVI
SN12C = tested on: SN12C
CCRF-CEM = tested on: CCRF-CEM
NCI/ADR-RES = tested on: NCI/ADR-RES
M14 = tested on: M14
IGROV-1 = tested on: IGROV-1
PC-3 = tested on: PC-3
786-0 = tested on: 786-0
A498 = tested on: A498
Hs-578T = tested on: Hs-578T
UO-31 = tested on: UO-31
MDA-MB-435 = tested on: MDA-MB-435
COLO 205 = tested on: COLO 205
HCT-15 = tested on: HCT-15
SK-MEL-28 = tested on: SK-MEL-28
MCF7 = tested on: MCF7
U-251 = tested on: U-251
SNB-19 = tested on: SNB-19
HL-60 = tested on: HL-60
SR = tested on: SR
OVCAR-4 = tested on: OVCAR-4
EKVX = tested on: EKVX
ACHN = tested on: ACHN
RPMI-8226 = tested on: RPMI-8226
KM12 = tested on: KM12
SF-268 = tested on: SF-268
CAKI-1 = tested on: CAKI-1
UACC-62 = tested on: UACC-62
NCI-H460 = tested on: NCI-H460
UACC-257 = tested on: UACC-257
Malme-3M = tested on: Malme-3M
MOLT-4 = tested on: MOLT-4
DU-145 = tested on: DU-145
NCI-H522 = tested on: NCI-H522
A549 = tested on: A549
HT-29 = tested on: HT-29
OVCAR-5 = tested on: OVCAR-5
SF-295 = tested on: SF-295
HCC 2998 = tested on: HCC 2998
SK-MEL-5 = tested on: SK-MEL-5
RXF 393 = tested on: RXF 393
MDA-N = tested on: MDA-N
HOP-92 = tested on: HOP-92
K562 = tested on: K562
SF-539 = tested on: SF-539
HOP-62 = tested on: HOP-62
SNB-75 = tested on: SNB-75
NCI-H226 = tested on: NCI-H226
OVCAR-3 = tested on: OVCAR-3
MDA-MB-231 = tested on: MDA-MB-231
T47D = tested on: T47D
SK-MEL-2 = tested on: SK-MEL-2
OVCAR-8 = tested on: OVCAR-8
SK-OV-3 = tested on: SK-OV-3

CSc1sc(C)cc1-c1nsc(=O)o1
GI50 (SW-620): > 100 µM (inactive)
GI50 (NCI-H23): > 100 µM (inactive)
GI50 (HCT-116): > 100 µM (inactive)
GI50 (LOX IMVI): > 100 µM (inactive)
GI50 (SN12C): > 100 µM (inactive)
GI50 (CCRF-CEM): > 100 µM (inactive)
GI50 (NCI/ADR-RES): > 100 µM (inactive)
GI50 (M14): > 100 µM (inactive)
GI50 (IGROV-1): > 100 µM (inactive)
GI50 (PC-3): > 100 µM (inactive)
GI50 (786-0): > 100 µM (inactive)
GI50 (A498): > 100 µM (inactive)
GI50 (Hs-578T): > 100 µM (inactive)
GI50 (UO-31): > 100 µM (inactive)
GI50 (MDA-MB-435): > 100 µM (inactive)
GI50 (COLO 205): > 100 µM (inactive)
GI50 (HCT-15): > 100 µM
GI50 (SK-MEL-28): > 100 µM (inactive)
GI50 (MCF7): > 100 µM (inactive)
GI50 (U-251): > 100 µM (inactive)
GI50 (SNB-19): > 100 µM (inactive)
GI50 (HL-60): > 100 µM (inactive)
GI50 (SR): > 100 µM (inactive)
GI50 (OVCAR-4): > 100 µM (inactive)
GI50 (EKVX): > 100 µM (inactive)
GI50 (ACHN): > 100 µM (inactive)
GI50 (RPMI-8226): > 100 µM (inactive)
GI50 (KM12): > 100 µM (inactive)
GI50 (SF-268): > 100 µM (inactive)
GI50 (CAKI-1): > 100 µM (inactive)
GI50 (UACC-62): > 100 µM (inactive)
GI50 (NCI-H460): > 100 µM (inactive)
GI50 (UACC-257): > 100 µM (inactive)
GI50 (Malme-3M): > 100 µM (inactive)
GI50 (MOLT-4): > 100 µM (inactive)
GI50 (DU-145): > 100 µM (inactive)
GI50 (NCI-H522): > 100 µM (inactive)
GI50 (A549): > 100 µM (inactive)
GI50 (HT-29): > 100 µM (inactive)
GI50 (OVCAR-5): > 100 µM (inactive)
GI50 (SF-295): > 100 µM (inactive)
GI50 (HCC 2998): > 100 µM (inactive)
GI50 (SK-MEL-5): > 100 µM (inactive)
GI50 (RXF 393): > 100 µM (inactive)
GI50 (MDA-N): > 100 µM (inactive)
GI50 (HOP-92): > 100 µM (inactive)
GI50 (K562): > 100 µM (inactive)

O=S(=O)(O)CCS [MESNA]
GI50 (SW-620): > 100 µM (inactive)
GI50 (NCI-H23): > 100 µM (inactive)
GI50 (HCT-116): > 100 µM (inactive)
GI50 (LOX IMVI): > 100 µM (inactive)
GI50 (SN12C): > 100 µM (inactive)
GI50 (CCRF-CEM): > 100 µM (inactive)
GI50 (NCI/ADR-RES): > 100 µM (inactive)
GI50 (M14): > 100 µM (inactive)
GI50 (IGROV-1): > 100 µM (inactive)
GI50 (PC-3): > 100 µM (inactive)
GI50 (786-0): > 100 µM (inactive)
GI50 (A498): > 100 µM (inactive)
GI50 (UO-31): > 100 µM (inactive)
GI50 (SF-539): > 100 µM (inactive)
GI50 (MDA-MB-435): > 100 µM (inactive)
GI50 (COLO 205): > 100 µM (inactive)
GI50 (HCT-15): > 100 µM
GI50 (SK-MEL-28): > 100 µM (inactive)
GI50 (MCF7): > 100 µM (inactive)
GI50 (HOP-62): > 100 µM (inactive)
GI50 (U-251): > 100 µM (inactive)
GI50 (SNB-19): > 100 µM (inactive)
GI50 (SR): > 100 µM (inactive)
GI50 (SNB-75): 39.7 µM (inactive)
GI50 (OVCAR-4): > 100 µM (inactive)
GI50 (EKVX): > 100 µM (inactive)
GI50 (ACHN): > 100 µM (inactive)
GI50 (KM12): > 100 µM (inactive)
GI50 (NCI-H226): > 100 µM (inactive)
GI50 (OVCAR-3): > 100 µM (inactive)
GI50 (SF-268): > 100 µM (inactive)
GI50 (CAKI-1): > 100 µM (inactive)
GI50 (MDA-MB-231): > 100 µM (inactive)
GI50 (UACC-62): > 100 µM (inactive)
GI50 (NCI-H460): > 100 µM (inactive)
GI50 (T47D): > 100 µM (inactive)
GI50 (UACC-257): > 100 µM (inactive)
GI50 (Malme-3M): > 100 µM (inactive)
GI50 (MOLT-4): > 100 µM (inactive)
GI50 (SK-MEL-2): > 100 µM (inactive)
GI50 (DU-145): > 100 µM (inactive)
GI50 (NCI-H522): > 100 µM (inactive)
GI50 (A549): > 100 µM (inactive)
GI50 (HT-29): > 100 µM (inactive)
GI50 (OVCAR-5): > 100 µM (inactive)
GI50 (OVCAR-8): > 100 µM (inactive)
GI50 (SF-295): > 100 µM (inactive)
GI50 (HCC 2998): > 100 µM (inactive)
GI50 (SK-MEL-5): > 100 µM (inactive)
GI50 (RXF 393): > 100 µM (inactive)
GI50 (MDA-N): > 100 µM (inactive)
GI50 (HOP-92): > 100 µM (inactive)
GI50 (SK-OV-3): > 100 µM (inactive)
GI50 (K562): > 100 µM (inactive)
